Patent publication US9765075B2, “Substituted bridged urea analogs as sirtuin modulators” (GLAXOSMITHKLINE LLC, priority 2013, dated 2017)

Target: T1, SIRT1 (Homo sapiens, UniProt Q96EB6)
T1 sequence (Q96EB6 1-747): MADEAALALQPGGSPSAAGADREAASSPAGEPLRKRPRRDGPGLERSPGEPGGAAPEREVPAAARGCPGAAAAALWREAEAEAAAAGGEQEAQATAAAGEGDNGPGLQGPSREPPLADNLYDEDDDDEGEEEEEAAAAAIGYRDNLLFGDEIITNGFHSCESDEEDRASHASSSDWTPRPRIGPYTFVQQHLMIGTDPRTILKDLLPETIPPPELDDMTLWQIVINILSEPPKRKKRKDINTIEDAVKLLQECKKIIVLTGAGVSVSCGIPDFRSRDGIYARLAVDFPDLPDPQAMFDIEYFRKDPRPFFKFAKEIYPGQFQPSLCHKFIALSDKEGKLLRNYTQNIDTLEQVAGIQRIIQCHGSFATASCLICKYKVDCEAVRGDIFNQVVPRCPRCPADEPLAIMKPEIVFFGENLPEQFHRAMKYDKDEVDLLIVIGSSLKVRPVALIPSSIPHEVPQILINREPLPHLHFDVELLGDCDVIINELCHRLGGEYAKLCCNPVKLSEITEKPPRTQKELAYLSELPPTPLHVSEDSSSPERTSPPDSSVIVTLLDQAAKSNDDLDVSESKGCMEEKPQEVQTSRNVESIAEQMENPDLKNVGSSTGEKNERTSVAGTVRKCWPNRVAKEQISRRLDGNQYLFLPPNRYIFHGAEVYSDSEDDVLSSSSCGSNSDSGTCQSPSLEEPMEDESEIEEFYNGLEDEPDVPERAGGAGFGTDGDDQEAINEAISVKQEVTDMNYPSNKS
Assay: Trp mass spectrometry assay (SIRT1 activation)
Assay type: biochemical
Settings: Trp mass spectrometry assay; EC1.5 = concentration of test compound that results in 150% activation of SIRT1
Text: Mass spectrometry based assays were used to identify modulators of SIRT1 activity. […] The peptide was labeled with the fluorophore 5TMR (excitation 540 nm/emission 580 nm) at the C-terminus. The sequence of the peptide substrate was based on p53 with several modifications. In addition, the methionine residue naturally present in the sequence was replaced with the norleucine because the methionine may be susceptible to oxidation during synthesis and purification. The Trp based assay utilized a peptide having an amino acid residues as follows: Ac-R-H-K-K(Ac)-W-NH2 (SEQ ID NO: 2).
The Trp mass spectrometry assay was conducted as follows. 0.5 μM peptide substrate and 120 μM βNAD^+ were incubated with 10 nM SIRT1 for 25 minutes at 25° C. in a reaction buffer (50 mM HEPES pH 7.5, […] NaCl, 1 mM DTT, 0.05% BSA). The SIRT1 protein was obtained by cloning the SirT1 gene into a T7-promoter containing vector, which was then expressed in BL21(DE3) bacterial cells and purified as described in further detail below. Test compound was added at varying concentrations to this reaction mixture and the resulting reactions were monitored. After the 25 minute incubation with SIRT1, 10 μL of 10% formic acid was added to stop the reaction. The resulting reactions were sealed and frozen for later mass spec analysis. The relative SIRT1 activity was then determined by measuring the amount of 0-acetyl-ADP-ribose (OAADPR) formed (or, alternatively, the amount of deacetylated Trp peptide generated) by the NAD-dependent sirtuin deacetylation reaction in the presence of varying concentrations of the test compound versus control reactions lacking the test compound. The degree to which the test agent activated deacetylation by SIRT1 was expressed as EC1.5 (i.e., the concentration of compound required to increase SIRT1 activity by 50% over the control lacking test compound), and Percent Maximum Activation (i.e., the maximum activity relative to control (100%) obtained for the test compound).
A control for activation of sirtuin activity was conducted using 10 nM of sirtuin protein, with 1 μL of DMSO in place of compound, to determine the amount of deacetylation of the substrate at a given time point within the linear range of the assay. This time point was the same as that used for test compounds and, within the linear range, the endpoint represents a change in velocity.
For the above assay, SIRT1 protein was expressed and purified as follows. The SirT1 gene was cloned into a T7-promoter containing vector and transformed into BL21(DE3). The protein was expressed by induction with 1 mM IPTG as an N-terminal His-tag fusion protein at 18° C. overnight and harvested at 30,000×g. Cells were lysed with lysozyme in lysis buffer (50 mM Tris-HCl, 2 mM Tris[2-carboxyethyl] phosphine (TCEP), 10 μM ZnCl2, 200 mM NaCl) and further treated with sonication for 10 min for complete lysis. The protein was purified over a Ni-NTA column (Amersham) and fractions containing pure protein were pooled, concentrated and run over a sizing column (Sephadex S200 26/60 global). The peak containing soluble protein was collected and run on an Ion-exchange column (MonoQ). Gradient elution (200 mM-500 mM NaCl) yielded pure protein. This protein was concentrated and dialyzed against dialysis buffer (20 mM Iris-HCl, 2 mM TCEP) overnight. The protein was aliquoted and frozen at −80° C. until further use.

| Tryp AVG EC1.5 (μM) | Compound |
| --- | --- |
| C (EC1.5>25 μM) | CCN(CC)C(=O)N1c2nc(-c3cccc(C(F)(F)F)c3)ccc2N2CC[C@H]1C2 [Example 52] |
| A (EC1.5<1 μM) | CC(=O)c1sc(NC(=O)N2c3nc(-c4cccc(C(F)(F)F)c4)ccc3N3CC[C@H]2C3)nc1C [Example 75] |
| B (EC1.5 1-25 μM) | COc1ccc(C)nc1NC(=O)N1c2nc(-c3cccc(C(F)(F)F)c3)ccc2N2CC[C@H]1C2 [Example 77] |

Same assay, conditions: Trp mass spectrometry assay; percent maximum fold activation of SIRT1; read-out: Tryp % Fold Act

| Compound | Emax [%] |
| --- | --- |
| Cc1nc(NC(=O)N2c3nc(-c4cccc(C(F)(F)F)c4)ccc3N3CC[C@H]2C3)sc1C [Example 48] | ≥ 150 |
| Cn1cc(NC(=O)N2c3nc(-c4cccc(C(F)(F)F)c4)ccc3N3CC[C@H]2C3)cn1 [Example 49] | ≥ 150 |
| COc1nccc(NC(=O)N2c3nc(-c4cccc(Cl)c4)ccc3N3CC[C@H]2C3)n1 [Example 50] | ≥ 150 |
| CC(C)NC(=O)N1c2nc(-c3cccc(C(F)(F)F)c3)ccc2N2CC[C@H]1C2 [Example 51] | ≥ 150 |
| CCN(CC)C(=O)N1c2nc(-c3cccc(C(F)(F)F)c3)ccc2N2CC[C@H]1C2 [Example 52] | < 150 |
| O=C(Nc1cc(OCC(O)CO)ccn1)N1c2nc(-c3cccc(C(F)(F)F)c3)ccc2N2CC[C@H]1C2 (some centres unmarked) [Example 53] | ≥ 150 |
| O=C(Nc1ccnc(OCC(O)CO)n1)N1c2nc(-c3cccc(Cl)c3)ccc2N2CC[C@H]1C2 (some centres unmarked) [Example 54] | ≥ 150 |
| Cc1cc(OCC(O)CO)nc(NC(=O)N2c3nc(-c4cccc(Cl)c4)ccc3N3CC[C@H]2C3)n1 (some centres unmarked) [Example 55] | ≥ 150 |
| Cc1csc(NC(=O)N2c3nc(-c4cccc(C(F)(F)F)c4)ccc3N3CC[C@H]2C3)n1 [Example 56] | ≥ 150 |
| O=C(Nc1ccccn1)N1c2nc(-c3cccc(F)c3)ccc2N2CC[C@H]1C2 [Example 57] | ≥ 150 |
| O=C(Nc1cccnn1)N1c2nc(-c3cccc(F)c3)ccc2N2CC[C@H]1C2 [Example 58] | ≥ 150 |
| O=C(Nc1ccc(F)cn1)N1c2nc(-c3cccc(F)c3)ccc2N2CC[C@H]1C2 [Example 59] | ≥ 150 |
| COc1nccc(NC(=O)N2c3nc(-c4cccc(F)c4)ccc3N3CC[C@H]2C3)n1 [Example 60] | ≥ 150 |
| Cc1cc(NC(=O)N2c3nc(-c4cccc(C(F)(F)F)c4)ccc3N3CC[C@H]2C3)ccn1 [Example 61] | ≥ 150 |
| Cc1cnccc1NC(=O)N1c2nc(-c3cccc(F)c3)ccc2N2CC[C@H]1C2 [Example 62] | ≥ 150 |

The remaining lines, values ahead:

| Emax [%] | Compound |
| --- | --- |
| ≥ 150 | O=C(Nc1cncc(OCC(O)CO)n1)N1c2nc(-c3cccc(Cl)c3)ccc2N2CC[C@H]1C2 (some centres unmarked) [Example 63] |
| ≥ 150 | Cc1cc(OCC(O)CO)nc(NC(=O)N2c3nc(-c4cccc(F)c4)ccc3N3CC[C@H]2C3)n1 (some centres unmarked) [Example 64] |
| ≥ 150 | O=C(Nc1ccnc(OCC(O)CO)n1)N1c2nc(-c3cccc(F)c3)ccc2N2CC[C@H]1C2 (some centres unmarked) [Example 65] |
| ≥ 150 | O=C(Nc1ccnc(OC[C@H](O)CO)c1)N1c2nc(-c3cccc(Cl)c3)ccc2N2CC[C@H]1C2 [Example 66] |
| < 150 | CC(C)c1cccc(C(C)C)c1NC(=O)N1c2nc(-c3cccc(C(F)(F)F)c3)ccc2N2CC[C@H]1C2 [Example 67] |
| < 150 | CCc1cccc(C)c1NC(=O)N1c2nc(-c3cccc(C(F)(F)F)c3)ccc2N2CC[C@H]1C2 [Example 69] |
| < 150 | CC(C)(C)c1ccccc1NC(=O)N1c2nc(-c3cccc(C(F)(F)F)c3)ccc2N2CC[C@H]1C2 [Example 70] |
| < 150 | CCc1cccc(CC)c1NC(=O)N1c2nc(-c3cccc(C(F)(F)F)c3)ccc2N2CC[C@H]1C2 [Example 71] |
| ≥ 150 | CC(C)(C)c1csc(NC(=O)N2c3nc(-c4cccc(C(F)(F)F)c4)ccc3N3CC[C@H]2C3)n1 [Example 72] |
| ≥ 150 | O=C(Nc1ccnc(OC[C@H](O)CO)c1)N1c2nc(-c3cccc(F)c3)ccc2N2CC[C@H]1C2 [Example 73] |
| ≥ 150 | O=C(Nc1ccncc1F)N1c2nc(-c3cccc(F)c3)ccc2N2CC[C@H]1C2 [Example 74] |
| ≥ 150 | CC(=O)c1sc(NC(=O)N2c3nc(-c4cccc(C(F)(F)F)c4)ccc3N3CC[C@H]2C3)nc1C [Example 75] |
| ≥ 150 | COc1ccc(C)nc1NC(=O)N1c2nc(-c3cccc(C(F)(F)F)c3)ccc2N2CC[C@H]1C2 [Example 77] |
| ≥ 150 | CC(=O)c1cc(F)c(NC(=O)N2c3nc(-c4cccc(C(F)(F)F)c4)ccc3N3CC[C@H]2C3)c(F)c1 [Example 78] |
